As a reminder, the LC50 is the concentration that kills 50% of the test population.

This note sets out measurements from ChEMBL document CHEMBL3044869, “Cross-resistance patterns and fitness in fufenozide-resistant diamondback moth, Plutella xylostella (Lepidoptera: Plutellidae)” (2012).

≈ marks a conversion by molar mass, not a printed value.

Common to all, as to type: functional
The test system of experiment [1] is Plutella xylostella. Nature of the experiment: Resistance ratio, ratio of LC50 for third-instar larvae of fufenozide-resistant Plutella xylostella (diamondback moth) to LC50 for third-instar larvae of fufenozide-susceptible Plutella xylostella.
The test system of experiment [2] is Plutella xylostella. Put plainly: Insecticidal activity against third-instar larvae of fufenozide-susceptible Plutella xylostella (diamondback moth) assessed as mortality by leaf-dip bioassay method.
The subject of experiment [3] is Plutella xylostella. Nature of the experiment: Insecticidal activity against third-instar larvae of fufenozide-resistant Plutella xylostella (diamondback moth) assessed as mortality by leaf-dip bioassay method.

On to `CC[C@H]1CCC[C@H](O[C@H]2CC[C@H](N(C)C)[C@@H](C)O2)[C@@H](C)C(=O)C2=C[C@@H]3[C@@H](C=C(C)[C@@H]4C[C@@H](O[C@@H]5O[C@@H](C)[C@H](OC)[C@@H](OC)[C@H]5OC)C[C@@H]34)[C@@H]2CC(=O)O1.CC[C@H]1CCC[C@H](O[C@H]2CC[C@H](N(C)C)[C@@H](C)O2)[C@@H](C)C(=O)C2=C[C@@H]3[C@@H](C=C[C@@H]4C[C@@H](O[C@@H]5O[C@@H](C)[C@H](OC)[C@@H](OC)[C@H]5OC)C[C@@H]34)[C@@H]2CC(=O)O1`, for which, in the experiment with Plutella xylostella [1], the RatioLC50 worked out at 2.34. The 50% lethal concentration (LC50) came out at 0.188 µg/mL in the experiment on Plutella xylostella [2] and 0.439 µg/mL in the experiment with Plutella xylostella [3].
In the same order, the values of `CC[C@H](C)[C@H]1O[C@]2(C=C[C@@H]1C)C[C@@H]1C[C@@H](C/C=C(\C)[C@@H](O[C@H]3C[C@H](OC)[C@@H](O[C@H]4C[C@H](OC)[C@@H](O)[C@H](C)O4)[C@H](C)O3)[C@@H](C)/C=C/C=C3\CO[C@@H]4[C@H](O)C(C)=C[C@@H](C(=O)O1)[C@]34O)O2.CO[C@H]1C[C@H](O[C@H]2[C@H](C)O[C@@H](O[C@@H]3/C(C)=C/C[C@@H]4C[C@@H](C[C@]5(C=C[C@H](C)[C@@H](C(C)C)O5)O4)OC(=O)[C@@H]4C=C(C)[C@@H](O)[C@H]5OC/C(=C\C=C\[C@@H]3C)[C@]54O)C[C@@H]2OC)O[C@@H](C)[C@@H]1O` [ABAMECTIN] are 7.02, 1.12 µg/mL and 7.87 µg/mL.
The matching figures for `CC1(C)[C@H](C=C(Cl)Cl)[C@H]1C(=O)O[C@@H](C#N)c1cccc(Oc2ccccc2)c1` [BETA-CYPERMETHRIN]: 1.35, 35.2 µg/mL (≈ 84.6 µM) and 47.5 µg/mL (≈ 114 µM).
For `CCOCn1c(-c2ccc(Cl)cc2)c(C#N)c(Br)c1C(F)(F)F` [CHLORFENAPYR], the RatioLC50 in the experiment on Plutella xylostella [1] is given as 1.11. Further, the LC50 in the experiment on Plutella xylostella [2] is 2.96 µg/mL (≈ 7.26 µM); in the experiment with Plutella xylostella [3] it was 3.3 µg/mL (≈ 8.1 µM).
In the same order, the values of `CCOP(=S)(OCC)Oc1nc(Cl)c(Cl)cc1Cl` [CHLORPYRIFOS] are 1.75, 122 µg/mL (≈ 349 µM) and 215 µg/mL (≈ 613 µM).
The matching figures for `O=C(NC(=O)c1c(F)cccc1F)Nc1ccc(Cl)cc1` [DIFLUBENZURON]: 17.2, 19.9 µg/mL (≈ 64.1 µM) and 342 µg/mL (≈ 1100 µM).
With `Cc1cc(C)cc(C(=O)N(NC(=O)c2ccc3c(c2C)OC(C)C3)C(C)(C)C)c1` (centres undefined) [FUXIAN], in the experiment on Plutella xylostella [1], the RatioLC50 is reported as 302.8. The values for the 50% lethal concentration (LC50) in the experiment with Plutella xylostella [2] and with Plutella xylostella [3] were 2.23 µg/mL (≈ 5.65 µM) and 676 µg/mL (≈ 1710 µM), respectively.
The matching figures for `O=C(NC(=O)c1c(F)cccc1F)Nc1cc(Cl)c(OC(F)(F)C(F)F)c(Cl)c1` [HEXAFLUMURON]: 28.7, 9.56 µg/mL (≈ 20.7 µM) and 274 µg/mL (≈ 594 µM).
The matching figures for `CNC(=O)ON=C(C)SC` [METHOMYL]: 1.92, 67.4 µg/mL (≈ 416 µM) and 130 µg/mL (≈ 798 µM).
`COc1cccc(C(=O)NN(C(=O)c2cc(C)cc(C)c2)C(C)(C)C)c1C` [METHOXYFENOZIDE]: the RatioLC50 with Plutella xylostella [1] turned out to be 37.6. Moreover, the LC50 with Plutella xylostella [2] stood at 7.33 µg/mL (≈ 19.9 µM); in the experiment with Plutella xylostella [3] it was 276 µg/mL (≈ 748 µM).
The matching figures for `CCOP(=S)(OCC)O/N=C(\C#N)c1ccccc1` [PHOXIM]: 1.58, 102 µg/mL (≈ 341 µM) and 161 µg/mL (≈ 540 µM).
In the same order, the values of `CC(C)(C)N(NC(=O)c1ccccc1)C(=O)c1ccccc1` [RH-5849] are 10.8, 10.6 µg/mL (≈ 35.8 µM) and 114 µg/mL (≈ 385 µM).
In the same order, the values of `CCc1ccc(C(=O)NN(C(=O)c2cc(C)cc(C)c2)C(C)(C)C)cc1` [TEBUFENOZIDE] are 27.9, 12.6 µg/mL (≈ 35.7 µM) and 353 µg/mL (≈ 1000 µM).
